Laboratory results published in patent US20160158317A1, “Antimicrobial Peptide Variants and Polynucleotides Encoding Same” (Adenium Biotech A/S, priority 2010, published 2016).
Where a SMILES comes first, the peptide text is derived from it. Bridges are numbered along the chain shown (N, C = ends).

Assay: Determination of the protein binding (90% serum, 30 kDa filter, HPLC)
Format: in vitro ADME
Conditions: serum
Protocol: Protein binding assays were performed as follows. The purified peptides were mixed with 90% serum and centrifuged through a 30 kDa filter. The ultra-filtrate and the non filtrated serum samples were quantified by HPLC measurements and the protein binding was subsequently calculated.

Compared with `CC(C)[C@@H]1NC(=O)[C@H](CCCNC(=N)N)NC(=O)[C@H](Cc2c[nH]c3ccccc23)NC(=O)[C@@H](NC(=O)[C@H](Cc2ccccc2)NC(=O)CN)CSSC[C@@H](C(=O)N[C@@H](CC(N)=O)C(=O)O)NC(=O)[C@H](CCCNC(=N)N)NC(=O)[C@H](CCCNC(=N)N)NC(=O)[C@H](Cc2ccc(O)cc2)NC(=O)[C@@H]2CSSC[C@H](NC1=O)C(=O)N[C@@H](Cc1c[nH]cn1)C(=O)N[C@@H](Cc1ccc(O)cc1)C(=O)N[C@@H](CCCNC(=N)N)C(=O)N[C@@H](CC(N)=O)C(=O)N[C@@H](CO)C(=O)N[C@@H](C(C)C)C(=O)N[C@@H](CCCNC(=N)N)C(=O)N[C@@H](C(C)C)C(=O)N2` [compound 327] (H-GFCWRVCHYRNSVRVCYRRCN-OH; disulfide 3-20, 7-16 (inferred); N-terminus and C-terminus assumed), `CC(C)[C@@H]1NC(=O)CNC(=O)[C@H](CC(N)=O)NC(=O)[C@H](CCCNC(=N)N)NC(=O)[C@H](Cc2ccc(O)cc2)NC(=O)[C@H](CO)NC(=O)[C@@H]2CSSC[C@H](NC(=O)[C@H](CCCCN)NC(=O)[C@H](CCCNC(=N)N)NC1=O)C(=O)N[C@@H](Cc1ccc(O)cc1)C(=O)N[C@@H](CCCNC(=N)N)C(=O)N[C@@H](CCCNC(=N)N)C(=O)N[C@H](C(=O)N[C@@H](CC(N)=O)C(=O)O)CSSC[C@H](NC(=O)[C@H](Cc1ccccc1)NC(=O)CN)C(=O)N[C@@H](Cc1c[nH]c3ccccc13)C(=O)N[C@@H](CCCNC(=N)N)C(=O)N[C@@H](C(C)C)C(=O)N2` [compound 331] (H-GFCWRVCSYRNGVRKCYRRCN-OH; disulfide 3-20, 7-16 (inferred); N-terminus and C-terminus assumed) is higher in fraction unbound: 0.02 for the first, 0.05 for the second.

Compared with `CC(C)[C@@H]1NC(=O)CNC(=O)[C@H](CC(N)=O)NC(=O)[C@H](CCCNC(=N)N)NC(=O)[C@H](CCCNC(=N)N)NC(=O)[C@H](C(C)C)NC(=O)[C@@H]2CSSC[C@H](NC(=O)[C@H](C(C)C)NC(=O)[C@H](CCCNC(=N)N)NC1=O)C(=O)N[C@@H](Cc1c[nH]cn1)C(=O)N[C@@H](CCCNC(=N)N)C(=O)N[C@@H](CCCNC(=N)N)C(=O)N[C@H](C(=O)N[C@@H](CC(N)=O)C(=O)O)CSSC[C@H](NC(=O)[C@H](Cc1ccccc1)NC(=O)CN)C(=O)N[C@@H](Cc1c[nH]c3ccccc13)C(=O)N[C@@H](CCCNC(=N)N)C(=O)N[C@@H](C(C)C)C(=O)N2` [compound 335] (H-GFCWRVCVRRNGVRVCHRRCN-OH; disulfide 3-20, 7-16 (inferred); N-terminus and C-terminus assumed), `CC(C)[C@@H]1NC(=O)[C@@H]2CSSC[C@H](NC(=O)[C@H](C)NC(=O)[C@H](CCCNC(=N)N)NC(=O)[C@H](CCCCN)NC(=O)CNC(=O)[C@H](CC(N)=O)NC(=O)[C@H](CCCNC(=N)N)NC(=O)[C@H](Cc3ccc(O)cc3)NC1=O)C(=O)N[C@@H](Cc1ccc(O)cc1)C(=O)N[C@@H](CCCNC(=N)N)C(=O)N[C@@H](CCCNC(=N)N)C(=O)N[C@H](C(=O)N[C@@H](CC(N)=O)C(=O)O)CSSC[C@H](NC(=O)[C@H](Cc1ccccc1)NC(=O)CN)C(=O)N[C@@H](Cc1c[nH]c3ccccc13)C(=O)N[C@@H](Cc1ccc(O)cc1)C(=O)N[C@@H](C)C(=O)N2` [compound 340] (H-GFCWYACVYRNGKRACYRRCN-OH; disulfide 3-20, 7-16 (inferred); N-terminus and C-terminus assumed) is lower in fraction unbound: 0.05 for the first, 0.02 for the second.

For `CC(C)[C@@H]1NC(=O)CNC(=O)[C@H](CC(N)=O)NC(=O)[C@H](CCCNC(=N)N)NC(=O)[C@H](Cc2ccc(O)cc2)NC(=O)[C@H](C)NC(=O)[C@@H]2CSSC[C@H](NC(=O)[C@H](C)NC(=O)[C@H](CCCNC(=N)N)NC1=O)C(=O)N[C@@H](Cc1ccc(O)cc1)C(=O)N[C@@H](CCCNC(=N)N)C(=O)N[C@@H](CCCNC(=N)N)C(=O)N[C@H](C(=O)N[C@@H](CC(N)=O)C(=O)O)CSSC[C@H](NC(=O)[C@H](Cc1ccccc1)NC(=O)CN)C(=O)N[C@@H](Cc1c[nH]c3ccccc13)C(=O)N[C@@H](Cc1ccc(O)cc1)C(=O)N[C@@H](C)C(=O)N2` [compound 343] (H-GFCWYACAYRNGVRACYRRCN-OH; disulfide 3-20, 7-16 (inferred); N-terminus and C-terminus assumed), the fraction unbound was 0.26.
